Assay results taken from patent US9932339B2, “Helquats with heteroaromatic substituents, preparation thereof, and use thereof as G-quadruplex stabilizers” (USTAV ORGANICKE CHEMIE A BIOCHEMIE AV CR, V.V.I., priority 2014, dated 2018).
Where two headings read alike, the source gives them in different places.

Experiments:
[1] = system: G-quadruplex in promoter region of the c-myc gene (NHE III1 segment); test: Dual luciferase analysis with plasmid pGL4.10-myc (luc2) in HGC-27 cells; type: cell-based, human; conditions: for inhibition at 50 µM / activity at 50 µM: Homo sapiens; for inhibition at 50 µM: HGC-27, text summary of tab. 5 (50 μmol·l^−1), read-out: inhibition of expression of firefly luciferase as compared to control; for activity at 50 µM: helquat 50 μmol · l^−1, HGC-27, firefly normalized to Renilla, 24 hours after transfection, read-out: luciferase expression relative to control (control = 100%); for Quantification of expression relative to control (%): control = 100%
Method in brief: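 HGC-27 cells were co-transfected 1:1 with pGL4.10-myc (luc2), whose firefly luciferase is driven by an 860 bp c-myc regulatory region containing the G-quadruplex-forming NHE III1 segment, and pRL-TK Renilla control, using X-tremeGENE HP DNA in OptiMEM. Compounds were added two hours post-transfection; luminescence read 24 hours after transfection was Renilla-normalized and expressed relative to control.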

CCRF-CEM = test: XTT cytotoxicity/proliferation assay, CCRF-CEM; type: cell-based; conditions: Homo sapiens, CCRF-CEM
Method in brief: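 CCRF-CEM cells plated at 3000 per well, treated next day for 72 h with helquats over 1-100 μmol·l^−1. Viability by XTT reduction (2 h), absorbance 492 nm with 690 nm reference; IC50 from triplicates, repeated in at least three independent experiments, values above 100 μmol·l^−1 extrapolated.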

[2] = 72 hours of treatment, read-out: IC50 CCRF CEM
[3] = 72 hours, summary of table 9, read-out: concentrations toxic towards CCRF-CEM cells

Compound | inhibition at 50 µM [1] [%] | activity at 50 µM [1] [%] | IC50 (CCRF-CEM; [2]) [µM] | IC50 (CCRF-CEM; [3]) [µM] | Quantification of expression relative to control (%) ([1]; 10 μmol · l^−1) | Quantification of expression relative to control (%) ([1]; 50 μmol · l^−1) | Quantification of expression relative to control (%) ([1]; 150 μmol · l^−1)
O=[N+]([O-])c1cccc2[nH]cc(/C=C/c3cc[n+]4c(c3)-c3c(ccc5c3-c3cccc[n+]3CC5)CC4)c12 (racemic) [LSA-C9-32, (rac)-(E)-2-(2-(4-nitro-1H-indol-3-yl)vinyl)-6,7,10,11-tetrahydrodipyrido[2,1-a:1′,2′-k][2,9]phenanthroline-5,12-diium trifluoromethanesulfonate] | > 20 | 74 | 11 to 25 | < 25 |  |  | 
Cc1c(C)c2c(c3c1CC[n+]1ccc(/C=C/c4cccc5c4oc4ccccc45)cc1-3)-c1c3ccccc3cc[n+]1CC2 (racemic) [MJA-C13-8, (rac)-(E)-13-(2-(dibenzo[b,d]furan-4-yl)vinyl)-6,7-dimethyl-4,5,8,9-tetrahydroisoquinolino[1,2-a]pyrido[1,2-k][2,9]phenanthroline-3,10-diium trifluoromethanesulfonate] | > 40 | 56 | 26 to 50 |  | 79.3 ± 6.7 | 69.8 ± 6.0 | 57.9 ± 2.5
C(=C\c1cccc2c1oc1ccccc12)/c1cc[n+]2c(c1)-c1c(ccc3c1-c1c4ccccc4cc[n+]1CC3)CC2.O=S(=O)([O-])C(F)(F)F.O=S(=O)([O-])C(F)(F)F [MSB-C13-8, (E)-13-(2-(dibenzo[b,d]furan-4-yl)vinyl)-4,5,8,9-tetrahydroisoquinolino[1,2-a]pyrido[1,2-k][2,9]phenanthroline-3,10-diium trifluoromethanesulfonate] |  |  | 26 to 50 |  |  |  | 
Brc1ccc2[nH]cc(/C=C/c3cc4ccccc4[n+]4c3-c3c(ccc5c3-c3cccc[n+]3CCC5)CCC4)c2c1.O=S(=O)([O-])C(F)(F)F.O=S(=O)([O-])C(F)(F)F [MSC-C9-30, 19-((E)-2-(5-bromo-1H-indol-3-yl)vinyl)-6,7,8,11,12,13-hexahydropyrido[1′″,2′″:1″,2″]azepino[4″,3″:5′,6′]benzo[1′,2′:3,4]azepino[1,2-a]quinoline-5,14-diium trifluoromethanesulfonate] | > 20 | 68 | ≤ 10 | < 25 |  |  | 
C(=C\c1c(-c2ccccc2)[nH]c2ccccc12)/c1cc2ccccc2[n+]2c1-c1c(ccc3c1-c1cccc[n+]1CCC3)CCC2.O=S(=O)([O-])C(F)(F)F.O=S(=O)([O-])C(F)(F)F [MSC-C15-8, 19-((E)-2-(2-phenyl-1H-indol-3-yl)vinyl)-6,7,8,11,12,13-hexahydropyrido[1′″,2′″:1″,2″]azepino[4″,3″:5′,6′]benzo[1′,2′:3,4]azepino[1,2-a]quinoline-5,14-diium trifluoromethanesulfonate] | > 20 | 76 | 11 to 25 |  |  |  | 
